Test results as given in US7078045B2, “Pharmaceutical composition for treatment and prevention of liver fibrosis and cirrhosis” (Sang-Geon Kim, priority 2000, dated 2006).
Read-outs that look alike come from different tables or passages of the source. Marks after values point to notes of the source that are not given here.

Assays:
[1] = tested on: TGF-β expression in RAW264.7 macrophage cells; assay: Inhibition of TGF-β expression in RAW264.7 macrophage cells; format: cell-based
NF-κB activation = assay: LPS-inducible NF-κB activation in rat liver (EMSA); format: in vivo; conditions: 2 h prior to LPS
Experimental: It is known that NF-κB activation is associated with inflammatory responses. To compare the NF-κB activity in the liver tissue when DDB is administered with that when DDB is not administered, the following test was conducted. SD male rats with weight of about 150 g were used. For one group 7 rats were used. For the control group (vehicle administered) and test group (20 to 100 mg/kg/day of DDB administered), the NF-κB activity in accordance with the treatment of endotoxin (lipopolysaccharide, LPS) was measured by using Electrophoresis Mobility Shift Assay (EMSA).

[2] = tested on: I-κBα degradation in RAW264.7 cells; assay: I-κBα degradation after LPS in RAW264.7 cells; format: cell-based
Experimental: (§1) Translocation of NF-κB to the nucleus was preceded by phosphorylation and proteolytic degradation of the I-κBα subunit. This test was conducted in order to ascertain whether the effect of DDB on NF-κB activation is associated with the inhibition of I-κBα degradation. The level of I-κBα protein was reduced 30 min after the treatment of rats with LPS (1 μg/kg). In contrast, treatment with DDB 2 h prior to LPS treatment attenuated the decrease in I-κBα protein by LPS. Also with RAW264.7 cells, DDB inhibited the degradation of I-κBα protein in a concentration-dependent manner at the concentrations of 0.3 to 1 mM.

TGF-β mRNA expression = assay: Effect of oltipraz/DDB combinations on TGF-β mRNA expression (quantitative RT-PCR) in DMN-administered animals; format: in vivo
Excerpt: As addressed above, TGF-β is a cytokine that causes hepatic fibrosis and is known to be associated with hepatic fibrosis development.
However, as the DDB to oltipraz ratio increases, the inhibition of TGF-β expression is progressively lost. In the animal group administered with DDB alone, TGF-β expression was not inhibited. Therefore, inhibition of TGF-β expression is considered to be caused by oltipraz. On this ground, the best combination ratio of oltipraz to DDB is 5:1 (Table 9).

I-κBα degradation = I-κBα degradation after LPS in rats; format: in vivo, rat; conditions: LPS 1 μg/kg + DDB 100 mg/kg, 2 h prior to LPS
Experimental: as §1

[3] = tested on: NF-κB activation in Raw264.7 cells; assay: LPS-induced NF-κB DNA binding activity in Raw264.7 cells; format: cell-based
Experimental: Stimulation of Raw264.7 cells with […] of LPS caused an increase in DNA binding activity of NF-κB after 30 min to 1 h. DDB at the concentrations of 0.1, 0.3 and 1 mM inhibited NF-κB activity in a concentration-dependent manner.

TNF-α production = assay: Plasma TNF-α after LPS in rats (ELISA); format: in vivo, rat; conditions: for plasma TNF-α level: LPS 1 μg/kg i.v., 2 h after administration; for % inhibition of LPS-induced plasma TNF-α elevation: Table 6, TNF-α production in plasma
Experimental: (§2) TNF-α is the principal mediator of the responses to LPS and is involved in inflammatory processes. It was determined by ELISA whether the amount of TNF-α released into blood decreases when NF-κB activity was inhibited by DDB. A single dose of LPS treatment (1 μg/kg, i.v.) increased the TNF-α level from 35 to 5160 pg per ml of plasma 2 h after administration. DDB treatment at a dose of 20, 50 or 100 mg/kg prevented the elevation of plasma TNF-α level by LPS, resulting in 1350, 1230 or 690 pg per ml of plasma, respectively. With the RAW264.7 cells, DDB decreased the production of TNF-α by LPS.

[4] = tested on: TNF-α production in RAW264.7 cells; assay: TNF-α production by LPS in RAW264.7 cells; format: cell-based; conditions: Table 6, TNF-α production; LPS + DDB 1.0 mg/kg as printed
Experimental: as §2

TGF-β 1 mRNA expression = conditions: liver tissue; 100 mg/kg oltipraz given 18 hours after DMN, observed 24 hours later
[5] = tested on: DMN induced hepatic fibrosis; conditions: 3 times a week; for Fibrosis Values: score 0-4
Experimental: The degree of fibrosis was determined by evaluating the fibrosis and Knodell scores, which show degrees of liver damage and fibrosis.
Each value is represented by the average ± standard deviation. The number of animals used was 8 to 16. The significance of each group is determined by the Newman-Keuls test of multiple analysis. *p<0.05, **p<0.01. Degree of fibrosis 0=Normal, 1=Presence of weak fibrous tissue, 2=Moderate presence of fibrous tissue, 3=Obvious presence of fibrous tissue, 4=Evidence of severe fibrosis. Sum of values from periportal bridging (Greatest=10), intralobular cell loss (Greatest=4), portal inflammation (Greatest=4), and fibrosis (Greatest=4) yields the Knodell score.

[6] = tested on: DMN induced hepatic fibrosis; assay: animal or person
Excerpt: Plasma gamma-glutamyl transpeptidase (gamma-GT) activity and bilirubin content are used as indicators of hepatic functionality.
Each value is represented by the average ± standard deviation. The number of animals used ranged from 8 to 16. The significance of each group was indicated by the Newman-Keuls test of multiple analysis. The significance markers are: *=p<0.05 compared to control, #=p<0.05 compared to DMN treated group.
The anti-fibrotic activity of the oltipraz/DDB combination was evaluated by changing the component ratio of the combination. To evaluate the effect of the combination according to the component ratio, the dosage schedule of DMN was partially modified. That is, while DMN was administered to a rat 12 times totally in dosages of 10 μl/kg per administration over a 4-week period, 3 times a week in the test examples 1 and 2, to evaluate the effect of the combination according to the component ratio, an animal model with reduced liver damage was used wherein DMN was administered to a rat 9 times totally in dosages of 10 μl/kg per administration over a 3-week period, 3 times a week, and then not administered in the remaining one week in the test example.

[7] = DMN 4 weeks + Oltipraz 5 mg/kg oral
[8] = DMN 4 weeks + Oltipraz 15 mg/kg oral
[9] = DMN 4 weeks + Oltipraz 50 mg/kg oral
[10] = plasma, DMN 4 weeks + Oltipraz 50 mg/kg

SMILES: O=c1c(-c2ccc(O)cc2)coc2cc(O)cc(O)c12 [Genistein, genistein]
- inhibition at 100 µM ([1]; Mus musculus, Genistein 100 μM, read-out: TGF-β Inhibition Percentage (%)): 80%

SMILES: COC(=O)c1cc(OC)c2c(c1-c1c(C(=O)OC)cc(OC)c3c1OCO3)OCO2 [DDB, dimethyl-4,4′-dimethoxy-5,6,5′,6′-dimethylene dioxybiphenyl-2,2′-dicarboxylate]
- % inhibition of NF-κB activation (NF-κB activation; LPS 1 μg/kg + DDB 20 mg/kg): 42%
- % inhibition of NF-κB activation (NF-κB activation; LPS 1 μg/kg + DDB 50 mg/kg): 63%
- % inhibition of NF-κB activation (NF-κB activation; LPS 1 μg/kg + DDB 100 mg/kg): 73%
- % inhibition of I-κBα degradation ([2]; LPS 1 μg/ml + DDB 0.1 mM): 22%
- % inhibition of I-κBα degradation ([2]; LPS 1 μg/ml + DDB 0.3 mM): 34%
- % inhibition of I-κBα degradation ([2]; LPS 1 μg/ml + DDB 1.0 mM): 65%
- % Inhibition of TGF-β mRNA expression (TGF-β mRNA expression; DMN + DDB 30 mg/kg): 0%
- TGF-β expression (result in words) (TGF-β mRNA expression; DMN + DDB alone): not inhibited
- % inhibition of I-κBα degradation (I-κBα degradation): 67%
- % inhibition of NF-κB activation ([3]; LPS 1 μg/ml + DDB 0.1 mM): 33%
- % inhibition of NF-κB activation ([3]; LPS 1 μg/ml + DDB 0.3 mM): 35%
- % inhibition of NF-κB activation ([3]; LPS 1 μg/ml + DDB 1.0 mM): 65%
- plasma TNF-α level (TNF-α production; DDB 20 mg/kg): 1350 pg per ml of plasma
- plasma TNF-α level (TNF-α production; DDB 50 mg/kg): 1230 pg per ml of plasma
- plasma TNF-α level (TNF-α production; DDB 100 mg/kg): 690 pg per ml of plasma
- % inhibition of LPS-induced plasma TNF-α elevation (TNF-α production; LPS 1 μg/kg + DDB 20 mg/kg): 74%
- % inhibition of LPS-induced plasma TNF-α elevation (TNF-α production; LPS 1 μg/kg + DDB 50 mg/kg): 76%
- % inhibition of LPS-induced plasma TNF-α elevation (TNF-α production; LPS 1 μg/kg + DDB 100 mg/kg): 87%
- % inhibition of TNF-α production [4]: 65%

SMILES: Cc1c(-c2cnccn2)ssc1=S [Oltipraz, 5-(2-pyrazinyl)-4-methyl-1,2-dithiol-3-thione]
- DMN induced expression of TGF-β 1 mRNA (TGF-β 1 mRNA expression): completely inhibited
- inhibition at 30 µM ([1]; Mus musculus, Oltipraz 30 μM, read-out: TGF-β Inhibition Percentage (%)): 30%
- inhibition at 100 µM ([1]; Mus musculus, Oltipraz 100 μM, read-out: TGF-β Inhibition Percentage (%)): 60%
- Knodell Values [5, 7]: 11.1 ± 1.7*
- Fibrosis Values [5, 7]: 3.1 ± 0.4*
- Knodell Values [5, 8]: 12.1 ± 1.9*
- Fibrosis Values [5, 8]: 2.9 ± 0.8*
- Knodell Values [5, 9]: 8.0 ± 1.6**
- Fibrosis Values [5, 9]: 2.5 ± 0.9**
- inhibition percentage of ALT increase by DMN ([6]; 50 mg/kg of oltipraz administered alone (stated in Test Example 7)): 40%
- inhibition at 50 mg/kg ([6]; Rattus norvegicus, read-out: inhibition of plasma bilirubin increase): 65%
- ALT [6, 10]: 116 ± 4^#
- AST [6, 10]: 246 ± 32^#
- Bilirubin [6, 10]: 0.3 ± 0.03^#
- gamma-GT [6, 10]: 2.6 ± 0.5^#
- TGF-β expression (result in words) (TGF-β mRNA expression; DMN + 30 mg/kg of oltipraz): completely inhibited
- % Inhibition of TGF-β mRNA expression (TGF-β mRNA expression; DMN + oltipraz 30 mg/kg): 65%

SMILES: O=C(O)CN(CCOCCOCCN(CC(=O)O)CC(=O)O)CC(=O)O [EGTA]
- TGF-β Inhibition Percentage (%) ([1]; EGTA 1 mM): 80%
